Test results reported in patent publication US4581451A, “Preparation of di- and tri-substituted xanthine compounds” (priority 1980, dated 1986).

assay: behavioural study in rats: anxiety induced by a new environment (rearings and movements); assay type: in vivo, male Sprague-Dawley rats; conditions: Rattus norvegicus, 0.5 h; oral, sodium salt in solution, 30 min before test, 15 min count; S.N.: mean of two regression curves; S.A.: from rearings curve; read-out: ED 50
Description: The xanthines obtained in accordance with the preceding Examples were the subject of a behavioural study in rats as a function of the anxiety induced by a new environment. In rats, anxiety is manifested by rearing the animal on its two hind paws, whilst locomotive activity is expressed by their movements.
A state of anxiety is induced by confronting "naive" male Sprague-Dawley (Iffa-Credo, France) rats weighing from 260 to 300 g with a new environment in the form of cages of Macrolon (30×25 cm) which are situated in a sound-proofed air-conditioned room (22° C./50% relative humidity).
The number of rearings and movements is automatically determined by means of infrared photoelectric cells which only emit electrical pulses for the active movements of the animal and not for its static movements, such as those of its head and tail, for reasons of reproducibility. These photoelectric cells scan the cages at two different levels so as to distinguish the standing-up movements from the other movements. The number of rearings and movements is counted by the two rows of photoelectric cells, memorised and read out using a printer in accordance with a pre-established program.
The tested compound in solution in the form of its sodium salt is orally administered by oesophagus probe (the reference administration being formed by 6 ml/kg of distilled water) 30 minutes before the animals are placed in the cages. The number of rearings and movements is determined during the 15 minutes after they have been put into the cages in relation to the effect generated by the reference administration.
The ED 50 dose (expressed in mg/kg), i.e. the quantity of substance required to bring about a 50% variation in the motive activity in relation to the reference administration, is determined from the development of the effects of the tested substances on the number of movements and rearings as a function of the progressive doses administered expressed as a percentage of the movements and rearings counted for the reference administration.
The gradients of the regression curves corresponding to the movements and to the rearings are compared by recording the value of the gradient of the movement curve on the abscissa (d) and the value of the gradient of the rearing curve on the ordinant (r) of a system of rectungular axes.
The ratio of the gradient of the movements to that of the rearings is also determined, enabling the specificity of effect of a given substance on the anxiety state to be assessed.
The effect of a substance is determined by its position relative to the curve d=r of gradient=1. The substances situated on this curve have a similar effect on the rearings and movements, being sedatives with a non-specific effect (S.N.). For these compounds, the ED 50 value quoted corresponds to the mean taken from the two regression curves.
These compounds are sedatives of anxiolytic character (S.A.). In this case, the ED 50 value is calculated from the regression curve of the rearings.

SMILES | ED50 [mg/kg]
Cc1nc2c([nH]1)c(=O)n(CC(C)C)c(=O)n2CC(C)C [Example 15, 1,3-diisobutyl-8-methyl xanthine] | 0.42
C=CCn1c(=O)c2[nH]c(C)nc2n(CCC)c1=O [Example 6, 1-allyl-3-propyl-8-methyl xanthine] | 0.27
CCCCn1c(=O)n(CC)c(=O)c2[nH]c(CC)nc21 [Example 9, 1,8-diethyl-3-butyl xanthine] | 2.38
CCCn1c(=O)c2[nH]c(C)nc2n(CC(C)C)c1=O [Example 12, 1-propyl-3-isobutyl-8-methyl xanthine] | 0.25
C=CCn1c(=O)c2[nH]cnc2n(CC(C)C)c1=O [Example 3, 1-allyl-3-isobutyl xanthine] | 0.98
C=CCn1c(=O)n(CCCC)c(=O)c2[nH]c(C)nc21 [Example 10, 1-butyl-3-allyl-8-methyl xanthine] | 3.95
CCCCn1c(=O)n(CC)c(=O)c2[nH]c(C)nc21 [Example 8, 1-ethyl-3-butyl-8-methyl xanthine] | 1.02
CCCCn1c(=O)c2[nH]c(C)nc2n(CCC)c1=O [Example 13, 1-butyl-3-propyl-8-methyl xanthine] | 1.05
CCCn1c(=O)c2[nH]c(C)nc2n(CCC)c1=O [Example 14, 1,3-dipropyl-8-methyl xanthine] | 0.37
C=CCn1c(=O)c2[nH]c(CC)nc2n(CCCC)c1=O [Example 5, 1-allyl-3-butyl-8-ethyl xanthine] | 6.24

assay: in vivo; conditions: rat, po, female, solution in DMSO, read-out: LD 50, rats female
Description: (b) Determination of the acute toxicity LD 50 in male and female rats in solution is DMSO (reference DMSO alone) in accordance with C.

SMILES | LD50 [mg/kg]
CCCn1c(=O)c2[nH]c(C)nc2n(CC(C)C)c1=O [Example 12, 1-propyl-3-isobutyl-8-methyl xanthine] | 19

same assay, conditions: rat, po, male, solution in DMSO, read-out: LD 50, rats male

SMILES | LD50 [mg/kg]
CCCn1c(=O)c2[nH]c(C)nc2n(CC(C)C)c1=O [Example 12, 1-propyl-3-isobutyl-8-methyl xanthine] | 28

assay: base screening: diuretic in male rats; assay type: in vivo; conditions: Rattus norvegicus, read-out: minimal effective dose producing a significant response, diuretic (c)
Description: (c) diuretic in male rats, as determined in accordance with W. L. Lipschitz, Z Hadidian and A. Kerpcsar, JPET, Vol. 79, pages 97-110, 1943

SMILES | minimal effective dose [mg/kg]
CCCCn1c(=O)n(CC)c(=O)c2[nH]c(CC)nc21 [Example 9, 1,8-diethyl-3-butyl xanthine] | 5
C=CCn1c(=O)c2[nH]cnc2n(CC(C)C)c1=O [Example 3, 1-allyl-3-isobutyl xanthine] | 5
C=CCn1c(=O)c2[nH]c(CC)nc2n(CCCC)c1=O [Example 5, 1-allyl-3-butyl-8-ethyl xanthine] | 2.5

assay: base screening: anti-allergic in male and female rats; assay type: in vivo; conditions: not given
Description: (d) anti-allergic in male and female rats, as determined in accordance with J. Goose and A. M. J. N. Blair, Immunol., Vol. 16, pages 749-760, 1969

SMILES | minimal effective dose producing a significant response, anti-allergic (d)
CCCCn1c(=O)n(CC)c(=O)c2[nH]c(CC)nc21 [Example 9, 1,8-diethyl-3-butyl xanthine] | no effect
C=CCn1c(=O)c2[nH]cnc2n(CC(C)C)c1=O [Example 3, 1-allyl-3-isobutyl xanthine] | no effect
C=CCn1c(=O)c2[nH]c(CC)nc2n(CCCC)c1=O [Example 5, 1-allyl-3-butyl-8-ethyl xanthine] | no effect

assay: base screening: bronchodilatory in vitro; conditions: not given
Description: (e) bronchodilatory in vitro as determined in accordance with F. P. Luduena et al., Arch. int. Pharmacodyn, Vol. 111, pages 392-400, 1957

SMILES | minimal effective concentration producing a significant response, bronchodilatory (e)
CCCCn1c(=O)n(CC)c(=O)c2[nH]c(CC)nc21 [Example 9, 1,8-diethyl-3-butyl xanthine] | 25 µg/mL
C=CCn1c(=O)c2[nH]cnc2n(CC(C)C)c1=O [Example 3, 1-allyl-3-isobutyl xanthine] | no effect
C=CCn1c(=O)c2[nH]c(CC)nc2n(CCCC)c1=O [Example 5, 1-allyl-3-butyl-8-ethyl xanthine] | 5 µg/mL

assay: base screening: anti-histamine in vitro; conditions: not given
Description: (f) anti-histamine in vitro as determined in accordance with R. Magnus, Arch f.d., ges. physiol., Vol. 102, pages 123-151, 1904.

SMILES | minimal effective concentration producing a significant response, anti-histamine (f) [µg/mL]
CCCCn1c(=O)n(CC)c(=O)c2[nH]c(CC)nc21 [Example 9, 1,8-diethyl-3-butyl xanthine] | 50
C=CCn1c(=O)c2[nH]cnc2n(CC(C)C)c1=O [Example 3, 1-allyl-3-isobutyl xanthine] | 200
C=CCn1c(=O)c2[nH]c(CC)nc2n(CCCC)c1=O [Example 5, 1-allyl-3-butyl-8-ethyl xanthine] | 100

assay: catalepsy induced by haloperidol in rats; assay type: in vivo; conditions: p.o.
Description: (§1) The compounds of Examples 1, 4, 11 and 12 were subjected to behavioural tests in accordance with "predictability and specificity of behaviour screening tests for neuroleptics", P. Worms and K. G. Lloyd, […], Vol. 5, pages 445-450, 1979, comprising: […]

SMILES | catalepsy induced by haloperidol
CCCn1c(=O)c2[nH]c(C)nc2n(CC(C)C)c1=O [Example 12, 1-propyl-3-isobutyl-8-methyl xanthine] | potentialisation at 1 mg/kg p.o.

assay: analgesia induced by pentobarbital in mice; assay type: in vivo; conditions: p.o.
Description: as §1

SMILES | analgesia induced by pentobarbital
CCCn1c(=O)c2[nH]c(C)nc2n(CC(C)C)c1=O [Example 12, 1-propyl-3-isobutyl-8-methyl xanthine] | potentialisation at 0.5 mg/kg p.o.

assay: climbing behaviour induced by apomorphine in mice; assay type: in vivo; conditions: p.o.
Description: as §1

SMILES | climbing behaviour induced by apomorphine
CCCn1c(=O)c2[nH]c(C)nc2n(CC(C)C)c1=O [Example 12, 1-propyl-3-isobutyl-8-methyl xanthine] | inhibition at 1 mg/kg p.o.

assay: stereotype behaviour induced by apomorphine in rats; assay type: in vivo; conditions: p.o.
Description: as §1

SMILES | stereotype behaviour induced by apomorphine
CCCn1c(=O)c2[nH]c(C)nc2n(CC(C)C)c1=O [Example 12, 1-propyl-3-isobutyl-8-methyl xanthine] | no antagonism up to 8 mg/kg p.o.

assay: rectal temperature in mice; assay type: in vivo; conditions: p.o.
Description: as §1

SMILES | rectal temperature
CCCn1c(=O)c2[nH]c(C)nc2n(CC(C)C)c1=O [Example 12, 1-propyl-3-isobutyl-8-methyl xanthine] | hypothermal effect at 2 mg/kg p.o.

assay: hypomotility induced by amphetamine in rats; assay type: in vivo; conditions: p.o.
Description: as §1

SMILES | hypomotility induced by amphetamine
CCCn1c(=O)c2[nH]c(C)nc2n(CC(C)C)c1=O [Example 12, 1-propyl-3-isobutyl-8-methyl xanthine] | antagonism at 0.5 mg/kg p.o.
